Converted amounts (≈) assume the structure as drawn.
Tests used:
Format in all cases: functional
[1] = test system: Mycobacterium tuberculosis; assay: Antibacterial activity against multidrug resistant Mycobacterium tuberculosis ATTC 27294 by Alamar Blue assay
[2] = test system: Mycobacterium tuberculosis; assay: Potency index, ratio of MIC for LVFX to MIC for test compound for antitubercular activity against rifampicin-resistant Mycobacterium tuberculosis after 21 days by two fold agar dilution method
[3] = test system: Mycobacterium tuberculosis; assay: Potency index, ratio of MIC for isoniazid to MIC for test compound for antitubercular activity against rifampicin-resistant Mycobacterium tuberculosis after 21 days by two fold agar dilution method
[4] = test system: Mycobacterium tuberculosis; assay: Potency index, ratio of MIC for GTFX to MIC for test compound for antitubercular activity against rifampicin-resistant Mycobacterium tuberculosis after 21 days by two fold agar dilution method
[5] = test system: Mycobacterium tuberculosis; assay: Potency index, ratio of MIC for rifampicin to MIC for test compound for antitubercular activity against rifampicin-resistant Mycobacterium tuberculosis after 21 days by two fold agar dilution method
[6] = test system: Mycobacterium tuberculosis; assay: Antitubercular activity against rifampicin-resistant Mycobacterium tuberculosis after 21 days by two fold agar dilution method; conditions: 504 h
[7] = test system: Mycobacterium tuberculosis; assay: Antibacterial activity against multidrug resistant Mycobacterium tuberculosis after 7 days by two fold dilution assay; conditions: 168 h

| Structure (SMILES) | MIC [1] [mg/L] | MIC [7] [mg/L] | other results |
| --- | --- | --- | --- |
| COc1c(N2C[C@@H]3CCCN[C@@H]3C2)c(F)cc2c(=O)c(C(=O)O)cn(C3CC3)c12 [MOXIFLOXACIN] | 0.1 to 0.6 (≈ 0.249 to 1.49 µM) | – | – |
| COc1c(N2CCNC(C)C2)c(F)cc2c(=O)c(C(=O)O)cn(C3CC3)c12 (stereo not given) [GATIFLOXACIN] | 0.1 to 0.6 (≈ 0.266 to 1.6 µM) | – | – |
| C[C@H]1COc2c(N3C[C@H]4CCCN[C@H]4C3)c(F)cc3c(=O)c(C(=O)O)cn1c23 | – | – | Ratio [2]: >=2.7 - 250; Ratio [3]: >=2.7 - 250; Ratio [4]: >=2.7 - 250; Ratio [5]: >=2.7 - 250; MIC [6]: 0.2 to 1.7 mg/L (≈ 0.516 to 4.39 µM) |
| O=C(O)c1cn(C2CC2)c2cc(N3CCNCC3)c(F)cc2c1=O [CIPROFLOXACIN] | 0.1 to 0.6 (≈ 0.302 to 1.81 µM) | – | – |
| NNC(=O)c1ccncc1 [ISONIAZID] | – | > 128 | – |
| CO[C@H]1/C=C/O[C@@]2(C)Oc3c(C)c(O)c4c(O)c(c(/C=N/N5CCN(C)CC5)c(O)c4c3C2=O)NC(=O)/C(C)=C\C=C\[C@H](C)[C@H](O)[C@@H](C)[C@@H](O)[C@@H](C)[C@H](OC(C)=O)[C@@H]1C [RIFAMPIN] | – | 32 (≈ 38.9 µM) | – |
